Results taken from patent US9732091B2, “Tryptophanol-derived oxazoloisoindolinones: small-molecule P53 activators” (UNIVERSIDADE DO PORTO, priority 2013, dated 2017).

How the values were obtained:
mutant p53 R175H = biological target: T1, mutant p53 R175H (Homo sapiens, UniProt P04637, R175H); assay: reactivation of mutant p53 in yeast (growth, CFU), R175H; format: cell-based; conditions: 10 μM; yeast expressing R175H; 44 hours
T1 construct: expressed in transfected cells
Description: FIG. 6 illustrates that SLMP53-1 reactivates mutant p53s R273H, R175H and R280K in yeast. Yeast cells expressing R273H, R280K, Y220C or R175H were incubated in selective medium with 10 μM of SLMP53-1, 10 μM of CP-31398 (for R273H), 10 μM of PRIMA-1 (for R175H and R280K), 50 μM of PhiKan 083 (for Y220C) or DMSO only, for 44 hours. CP-31398, PRIMA-1 and PhiKan 083 were used as positive controls. Results are plotted setting as 100% growth the number of CFU obtained in the presence of DMSO only.
It is also shown that SLMP53-1 can reactivate some mutant p53 forms, particularly R273H, R280K and R175H (FIG. 6).

HCT116 p53^−/− = assay: SRB growth inhibition assay in HCT116 p53^−/− colon carcinoma cells; format: cell-based, human; conditions: Homo sapiens, HCT-116, 48 hours incubation, mean±S.E.M.
Description: Tumor cells were plated at 5.0×10^3 cells/well in 96-well plates and incubated for 24 hours. Cells were then exposed to serial dilutions of SLMP53-1, CP-31398 or PRIMA-1 (from 1.85 to 150 μM). The effect of the compounds was analyzed following 48 hours incubation, using the sulforhodamine B (SRB) assay. The solvent DMSO corresponding to the maximum concentration used in these assays (0.025%) was included as control. The GI50 value, the concentration of compound that causes 50% growth inhibition, was calculated for the tested compounds. Results are the mean±S.E.M. of three independent experiments.

HCT116 p53^+/+ cells = assay: sensitization to etoposide and doxorubicin, SRB assay, HCT116 p53^+/+; format: cell-based, human
Description: FIG. 5 illustrates that SLMP53-1 sensitizes colon carcinoma tumor cells with wt p53 (HCT116 p53^+/+) to the effects of etoposide and doxorubicin. HCT116 p53^+/+ cells were treated for 48 hours with increasing concentrations of etoposide (0.38 to 3.00 μM) or doxorubicin (9.38 to 75.0 nM) in the presence of a very low concentration (between GI5 to GI10; 4 μM) of SLMP53-1 or DMSO only. The effect of the compounds on cell growth was analyzed following 48 hours incubation, using the sulforhodamine B (SRB) assay. Results are mean±SEM of three to four independent experiments.
It was also investigated if SLMP53-1 increased the sensitivity of HCT116 p53^+/+ cells to the effects of various concentrations of the conventional chemotherapeutic drugs, etoposide (0.38 to 3.00 μM) and doxorubicin (9.38 to 75 nM). For that, a low concentration of SLMP53-1 (approximately the GI5 to GI10 concentration; 4 μM; without significant anti-proliferative effect on tumor cells) was used.

## C[C@]12OC[C@H](Cc3c[nH]c4ccccc34)N1C(=O)c1ccccc12 [SLMP53-1]
Mutant p53 R175H
  yeast growth inhibition: significant growth inhibition
HCT116 p53^−/−
  GI50: 34 ± 3.5 µM
HCT116 p53^+/+ cells; 9.38 nM doxorubicin in the presence of 4 μM of SLMP53-1, HCT116 p53^+/+
  decrease of tumor cell growth: 15%
HCT116 p53^+/+ cells; 4 μM SLMP53-1, etoposide 0.75 and 3.00 μM, doxorubicin 9.38, 37.5 and 75 nM, 48 hours
  etoposide/doxorubicin-induced growth inhibition: increased
